Measured values as given in patent US5686255A, “Compositions and methods for diagnosing schizophrenia” (priority 1995, dated 1997).
“Also recorded” adds a separate entry of the source.

Columns and labels:
[1] = tested on: Chinese hamster ovary cells which express the cloned dopamine D4 receptor; assay: Spontaneous G protein binding of [35S]GTPγS in membranes of CHO cells expressing the D4 receptor, after cycloleucine pretreatment; type: cell-based; settings: cells treated with 0.1 mM and 1 mM cycloleucine prior to membrane preparation; versus untreated control membranes; FIG. 5A
Description: The effect of cycloleucine, a known MAT inhibitor, on the binding of [^35 S]GTPγS was tested by treating Chinese hamster ovary cells expressing the D4 receptor with 0.1 mM and 1 mM cycloleucine prior to membrane preparation (FIG. 5A).
Chinese hamster ovary (CHO) cells stably expressing a cloned dopamine D4 receptor were grown as monolayers at 37° (95% O2 /5%CO2) in alpha minimum essential medium supplemented with 2.5% fetal calf serum, 2.5% horse serum, 100 units/ml penicillin, 100 μg/ml streptomycin, 0.25 μg/ml fungizone and 400 μg/ml G418.
Cells were washed twice with phosphate-buffered saline (137 mM NaCl, 2.6 mM KCl, 10 mM Na2 HPO4, 1.8 mM KH2 PO4), harvested with a rubber policeman, and pelleted at 4° at 200× g. The pellet was resuspended in 5 ml/dish of lysis buffer (5 mM Tris-HCL, pH 7.5, 5 mM EDTA, 5 mM EGTA, 0.1 mM phenylmethylsulfonyl fluoride) at 4° and was homogenized with a Dounce homogenizer. […]
[^35 S]GTPγS binding was measured with a modification of the assay used by Hilf and Jakobs (Eur J Pharmacol 172: 155-163 (1989)). […] The filters were washed four times (with 4 ml of 50 mM Tris.cndot.HCl, pH 7.5, containing 5 mM MgCl2 and 100 mM NaCl) and then counted in scintillation cocktail. Nonspecific binding was determined in the presence of 10 μM GTPγS and subtracted from total bound radioactivity.

[2] = tested on: Chinese hamster ovary cells without the D4 receptor; assay: Spontaneous [35S]GTPγS binding in CHO cells without the D4 receptor; type: cell-based; settings: FIG. 5B
From the text: FIGS. 5A and 5B illustrate graphic representations of the effect of cycloleucine on spontaneous G protein binding of [^35 S]GTPγS.

NC1(C(=O)O)CCCC1 [cycloleucine]
binding of [35S]GTPγS to the membranes (spontaneous G protein activation) [1]: inhibit spontaneous G protein binding of [^35 S]GTPγS; also recorded: progressively reduced by 0.1 mM and 1 mM cycloleucine pretreatment to levels significantly lower than the untreated control membranes | effect on spontaneous [35S]GTPγS binding [2]: inability of cycloleucine to affect spontaneous [^35 S]GTPγS binding
